Results reported in PMC4774894 (Journal of natural products, 2015).

Tested on: HIV-1 NL4-3
Conditions: for selectivity index CC50/EC50: CC50 (MT4 cells) / EC50 (HIV-1 NL4-3 in MT4); for selectivity index (SI) (bound or span stated in text for a group of compounds): bound or span over the group named

Structure (SMILES)	selectivity index CC50/EC50	selectivity index (SI) (bound or span stated in text for a group of compounds)
C=C(C)[C@]12C[C@@H](COC(=O)c3ccccc3)[C@]34OC5(CCCCCCC[C@H](C)[C@@H]6[C@@H]3[C@]3(O[C@]6(C)OC3=O)[C@H](O)[C@@]3(COC(=O)CCCCCCCCCCCCCCC)O[C@H]3[C@H]4[C@H]1O5)O2 [Compound 1, Stelleralide D]	≥18	< 50
C=C(C)[C@]12C[C@@H](COC(=O)c3ccccc3)[C@]34OC5(CCCCCCC[C@H](C)[C@@H]6[C@@H]3[C@]3(O[C@]6(C)OC3=O)[C@H](O)[C@@]3(COC(=O)CCCCCCC/C=C\C/C=C\CCCCC)O[C@H]3[C@H]4[C@H]1O5)O2 [Compound 2, Stelleralide E]	≥1	< 50
C=C(C)[C@]12C[C@@H](COC(C)=O)[C@@]34OC5(O[C@@H]1[C@@H]3[C@@H]1O[C@]1(CO)[C@@H](O)[C@@]1(O)[C@H]4[C@H]([C@H](C)[C@@H]1OC(=O)c1ccccc1)[C@H](C)C[C@@H](OC(=O)c1ccccc1)CCCC[C@H]5O)O2 [Compound 3, Stelleralide F]	≥12903	more than 10 000
C=C(C)[C@]12C[C@@H](COC(=O)c3ccccc3)[C@@]34OC5(O[C@@H]1[C@@H]3[C@@H]1O[C@]1(CO)[C@@H](O)[C@@]1(O)[C@H]4[C@H]([C@H](C)[C@@H]1OC(=O)c1ccccc1)[C@H](C)C[C@@H](OC(=O)c1ccccc1)CCCC[C@H]5O)O2 [Compound 4, Stelleralide G]	≥15342	more than 10 000
C=C(C)[C@]12C[C@@H](COC(=O)c3ccccc3)[C@@]34OC5(O[C@@H]1[C@@H]3[C@@H]1O[C@]1(COC(=O)c1ccccc1)[C@@H](O)[C@@]1(O)[C@H]4[C@H]([C@H](C)[C@@H]1O)[C@H](C)CCCCCC[C@H]5O)O2 [Compound 5, Stelleralide H]	≥13163	more than 10 000
C=C(C)[C@@]12OC3(/C=C/C=C/CCCCCCCCCC)O[C@@H]1[C@@H]1[C@@H]4O[C@]4(CO)[C@@H](O)[C@]4(O)C(=O)C(C)=C[C@H]4[C@@]1(O3)[C@H](C)[C@H]2O [Compound 6, Stelleralide I]	≥135	
C=C(C)[C@]1(O)C[C@@H](C)[C@@]2(O)[C@H]([C@H]1OC(=O)/C=C/C=C/CCCCCCCCC)[C@H](O)[C@@](O)(CO)[C@@H](O)[C@]1(O)C(=O)C(C)=C[C@H]12 [Compound 7, Stelleralide J]	≥100	
C=C(C)[C@]12C[C@@H](COC(=O)c3ccccc3)[C@]34OC5(CCCCCCC[C@H](C)[C@@H]6[C@@H]3[C@]3(O[C@]6(C)OC3=O)[C@H](O)[C@@]3(CO)O[C@H]3[C@H]4[C@H]1O5)O2 [Compound 8, stelleralide C]	≥41	< 50
C=C(C)[C@]12C[C@@H](C)[C@]34O[C@]5(CCCCCCC[C@H](C)[C@@H]6[C@@H]3[C@]3(O[C@]6(C)OC3=O)[C@H](O)[C@@]3(CO)O[C@H]3[C@H]4[C@H]1O5)O2 [Compound 9, pimelotide A]	≥16	< 50
C=C(C)[C@]12C[C@@H](COC(=O)c3ccccc3)[C@@]34OC5(O[C@@H]1[C@@H]3[C@@H]1O[C@]1(CO)[C@@H](O)[C@@]1(O)[C@H]4[C@H]([C@H](C)[C@@H]1OC(=O)c1ccccc1)[C@H](C)CCCCCC[C@H]5O)O2 [Compound 10, gnidimacrin]	≥21500	more than 10 000
C=C(C)[C@]12C[C@@H](C)[C@@]34OC5(CCCCCCC[C@@H](C)[C@H]6[C@H](C)[C@H](OC(=O)c7ccccc7)[C@@](O)([C@H](O)[C@@]7(CO)O[C@H]7[C@H]3[C@H]1O5)[C@@H]64)O2 [Compound 11, pimelea factor P2]	≥14272	more than 10 000
C=C(C)[C@]12C[C@@H](COC(=O)c3ccccc3)[C@@]34OC5(CCCCCCC[C@@H](C)[C@H]6[C@H](C)C(=O)[C@@](O)([C@H](O)[C@@]7(CO)O[C@H]7[C@H]3[C@H]1O5)[C@@H]64)O2 [Compound 12, wikstroelide F]	≥318	
C=C(C)[C@@]12O[C@@]3(/C=C/C=C/CCCCCCCCC)O[C@@H]1[C@@H]1[C@@H]4O[C@]4(CO)[C@@H](O)[C@]4(O)C(=O)C(C)=C[C@H]4[C@@]1(O3)[C@H](C)[C@H]2OC(C)=O [Compound 13, wikstroelide A]	≥1300	
C=C(C)[C@@]12OC3(/C=C/C=C/CCCCCCCCCC)O[C@@H]1[C@@H]1[C@@H]4O[C@]4(CO)[C@@H](O)[C@]4(O)C(=O)C(C)=C[C@H]4[C@@]1(O3)[C@H](C)[C@H]2OC(C)=O [Compound 14, wikstroelide B]	≥392	
C=C(C)[C@]12C[C@@H](C)[C@@]34OC(/C=C/C=C/CCCCCCCCCC)(O[C@@H]1[C@@H]3[C@@H]1O[C@]1(CO)[C@@H](O)[C@]1(O)C(=O)C(C)=C[C@H]14)O2 [Compound 15, wikstrotoxin A]	≥1284	
C=C(C)[C@]12C[C@@H](C)[C@@]34O[C@](/C=C/C=C/CCCCCCCCC)(O[C@@H]1[C@@H]3[C@@H]1O[C@]1(CO)[C@@H](O)[C@]1(O)C(=O)C(C)=C[C@H]14)O2 [Compound 16, huratoxin]	≥5384	
C=C(C)[C@]1(O)C[C@@H](C)[C@@]2(O)[C@H]([C@H]1OC(=O)/C=C/C=C/CCCCCCCCC)[C@@H]1O[C@]1(CO)[C@@H](O)[C@]1(O)C(=O)C(C)=C[C@H]12 [Compound 17, wikstroelide M]	≥281	
C=C(C)[C@@]1(O)[C@H](OC(=O)/C=C/C=C/CCCCCCCCC)[C@@H]2[C@@H]3O[C@]3(CO)[C@@H](O)[C@]3(O)C(=O)C(C)=C[C@H]3[C@@]2(O)[C@H](C)[C@H]1OC(C)=O [Compound 18, wikstroelide J]	≥345	
C=C(C)[C@]12C[C@@H](C)[C@@]34O[C@](CCCCCCCCC)(O[C@@H]1[C@@H]3[C@@H]1O[C@]1(CO)[C@@H](O)[C@]1(O)C(=O)C(C)=C[C@H]14)O2 [Compound 19, simplexin]	≥400	
